Values joined by “and” are separate entries in the source; they are usually repeats but may differ in a detail not shown here. Equal entries are not always repeated. Where two headings read alike, the source gives them in different places.
Tests used:
AChE of S. zeamais = experiment: AChE activity assay (modified Ellman) with S. zeamais protein extract; assay type: biochemical, Sitophilus zeamais; parameters: key to AChE Effect Inhibitor Type: C: competitive inhibitor; NC: non-competitive inhibitor; details: for AChE Effect Inhibitor Type: Lineweaver–Burk; for AChE Effect IC50 ± SD / Ki: S. zeamais protein extract; for Ki: read-out: AChE Effect ki ± SD (inhibitory constant)
Procedure: The compounds and mixtures evaluated in the in vitro assays were prepared in the same buffer supplemented with 0.5% (v/v) Triton X-100 (Sigma-Aldrich®, Saint Louis, MO, USA).
The supernatant was filtered, and 20 mM benzamidine was added. The extracts were stored in 5 mL aliquots at −20 °C. Preliminary assays were performed to quantify the specific activity of AChE (0.02–1.00 U/mL), GST (0.1–0.8 U/mL), and CAT (0.1–25 U/mL), and to optimize assay conditions (enzyme dilution: 1/8 to 1% v/v; substrate concentrations: 2 × km or within assay linearity).
Then, 50 µL of DTNB and 50 µL of ATChI were added. […] Inhibition percentages were calculated using Equation (5).

[1] = test system: glutathione S-transferase (GST) activity in S. zeamais; experiment: GST activity assay (modified Habig) with S. zeamais protein extract; assay type: biochemical, Sitophilus zeamais; details: 120 mg/L
Procedure: Enzymatic assays were performed in the assay buffer, consisting of 0.1 M potassium phosphate buffer (pH 7.2). The compounds and mixtures evaluated in the in vitro assays were prepared in the same buffer supplemented with 0.5% (v/v) Triton X-100 (Sigma-Aldrich®, Saint Louis, MO, USA).
A modified version of the method described by Oviedo et al. was used. Adults of S. zeamais (8 g; ~3125 insects) were frozen in liquid nitrogen, homogenized in a 1:10 ratio with assay buffer, and centrifuged at 13,000× g for 60 min at 4 °C. The supernatant was filtered, and 20 mM benzamidine was added. The extracts were stored in 5 mL aliquots at −20 °C. Preliminary assays were performed to quantify the specific activity of AChE (0.02–1.00 U/mL), GST (0.1–0.8 U/mL), and CAT (0.1–25 U/mL), and to optimize assay conditions (enzyme dilution: 1/8 to 1% v/v; substrate concentrations: 2 × km or within assay linearity). Each experiment was performed independently three times, with three technical replicates per experiment.
A modified version of Habig’s method was used. The protein extract (50 µL; 0.59 U/mL) was incubated with 50 µL of the compound or mixture (120 mg/L), followed by 50 µL each of CDNB and reduced glutathione (GSH). Kinetic absorbance was measured at 340 nm for 8 min. Blanks (without substrate) and quercetin (positive control) were included. Inhibition (%) was calculated using Equation (5), and treatment differences were evaluated via parametric ANOVA (α = 0.05) in GraphPad Prism 8.0.2 [42, 43]. Each experiment was performed independently three times, with three technical replicates per experiment.(5) % Inhibition=1−Am−AB/AC ×100 where Am is the absorbance of the sample, AB is the absorbance of the blank, and AC is the absorbance of the negative control.

Sitophilus zeamais [2] = experiment: whole plant or invertebrate; details: for LC50 / EC90: Sitophilus zeamais; for EC90: read-out: Fumigant Toxicity LC90 (95% FL)
Procedure: (§1) The insects used in this study were Sitophilus zeamais Motschulsky (Coleoptera: Curculionidae), identified by the Instituto Colombiano Agropecuario (ICA) under report number R3823M0000425. […] The adult insects used in all the experiments were 6 to 10 days post-emergence.
The treated disks were affixed to the inner surface of the screw cap of 22 mL glass vials. […] All treatments were performed in two independent experiments, each with five replicates.
(§2) Mixtures predicted by the RSM were prepared based on mole fractions. […] Four replicates were performed for each treatment and control across two independent experimental runs.
Dose reduction indices (DRIs) were also calculated to estimate how much the dose of each compound in a synergistic combination could be reduced to achieve a 50% effect (Equation (4)). DRIs were interpreted as favorable when >1, neutral at 1, and unfavorable when <1. Values above the log DRI = 0 line indicate favorable dose reductions.(4) (IRD)i=CL50i(fax)i/(1−(fax)i)^1/mi/(D)i

Sitophilus zeamais [3] = assay type: in vivo; details: for Contact Toxicity LD50i (LC-95%): mixtures and their components (Table 3)
Procedure: as §1
Groups of 10 insects, previously placed in Petri dishes, were immobilized by exposure to low temperatures (0 °C). An initial dose of 50.0 µg per adult was applied topically to the dorsal thorax of each insect using aliquots of 0.20 µL from 0.25 mg/µL solutions in n-hexane. […] All treatments were performed in two independent experiments, each with four replicates. Insect mortality was assessed after 24 h, and mortality percentages were calculated using Abbott’s correction formula (Equation (1)).
as §2
Dose reduction indices (DRIs) were also calculated to estimate how much the dose of each compound in a synergistic combination could be reduced to achieve a 50% effect (Equation (4)). DRIs were interpreted as favorable when >1, neutral at 1, and unfavorable when <1.

[4] = 24 h, read-out: Fumigant Toxicity LC50i (LC-95%)
[5] = in Homo sapiens, 24 h, read-out: Fumigant Toxicity LC50 (95% FL)
[6] = read-out: LC50 values, fumigant activity (Figure 3)

Molecule | LC50 (Sitophilus zeamais [2]; [4]) [µg/mL] | LC50 (Sitophilus zeamais [2]; [5]) | EC90 (Sitophilus zeamais [2]; in Homo sapiens, 24 h) | Contact Toxicity LD50 (95% FL) (Sitophilus zeamais [3]; topical, 24 h after exposure) | Contact Toxicity LD90 (95% FL) (Sitophilus zeamais [3]; topical, 24 h after exposure) | also measured
C=CCc1ccc(OC)cc1 [Compound C11, Estragole] | 30.5 | 30.5 µg/mL and 206 µM | 57.5 µg/mL and 388 µM | – | – | AChE inhibition type (Lineweaver–Burk plots), in words (AChE of S. zeamais): competitive inhibition; AChE Effect Inhibitor Type (AChE of S. zeamais): C; AChE Effect IC50 ± SD (AChE of S. zeamais): 27.41 ± 1.64 µg/mL; Ki (AChE of S. zeamais): 159 ± 6.34 µM; GST Inhibition λ340 (%) [1]: ~ 17.5% and 17.6%; Contact Toxicity LD90 (95% FL) (Sitophilus zeamais [3]; in vivo): 79.66 (68.62–99.73) µg/Adult
CC(=O)OC/C=C(\C)CCC=C(C)C [Compound C37, Geranyl acetate] | – | – | – | 73.00 (65.98–81.05) µg/Adult | 126.06 (112.84–146.08) µg/Adult | –
CC1=CC[C@H]2[C@@H](C1)C2(C)C [Compound C15, δ-3-Carene] | 80.3 | 80.3 µg/mL and 590 µM | 136 µg/mL and 997 µM | – | – | AChE inhibition type (Lineweaver–Burk plots), in words (AChE of S. zeamais): non-competitive inhibition; AChE Effect Inhibitor Type (AChE of S. zeamais): NC; Ki (AChE of S. zeamais): 2.85 ± 0.05 µM; GST Inhibition λ340 (%) [1]: 7.3%
Isoeugenol [Compound C31] | – | – | – | 29.1 (24.40–34.21) µg/Adult | 66.2 (57.28–80.01) µg/Adult | –
C=C(C)C1CC=C(C)CC1 (racemic) [Compound C16, DL-Limonene (1:1)] | 88.7 | 88.7 µg/mL and 651 µM | 136 µg/mL and 999 µM | – | – | AChE inhibition type (Lineweaver–Burk plots), in words (AChE of S. zeamais): non-competitive inhibition; AChE Effect Inhibitor Type (AChE of S. zeamais): NC; AChE Effect IC50 ± SD (AChE of S. zeamais): 26.69 ± 2.90 µg/mL; Ki (AChE of S. zeamais): 79.64 ± 0.55 µM; GST Inhibition λ340 (%) [1]: 7.4%
CC1(C)C(C=C(Cl)Cl)C1C(=O)OC(C#N)c1cccc(Oc2ccccc2)c1 (stereo not shown) [Cypermethrin, reference compound] | – | – | – | 10.492 (0.00–29.96) µg/Adult | 35.79 (21.98–84.37) µg/Adult | Contact Toxicity LD50i (LC-95%) (Sitophilus zeamais [3]): 10.49 (0.10–19.96) µg/Adult; Contact Toxicity LD50i (LC-95%) (Sitophilus zeamais [3]; listed as cypermethrin): 10.49 µg/Adult
C=C(C)[C@@H]1CC[C@@H](C)CC1=O [Compound C23, 2S,5R-Isopulegone] | 2.37 | 2.37 µg/mL and 15.6 µM | 3.88 µg/mL and 25.5 µM | – | 18.48 (16.56–21.64) µg/Adult | GST Inhibition λ340 (%) [1]: 19.4%; Contact Toxicity LD50i (LC-95%) (Sitophilus zeamais [3]): 11.14 µg/Adult
CCCCCCCCCC(C)=O [Compound C36, 2-Undecanone] | – | – | – | 42.86 (40.60–45.30) µg/Adult | 57.13 (53.43–62.83) µg/Adult | –
COP(=O)(OC)OC=C(Cl)Cl [Dichlorvos, reference compound] | 2.17 | 2.17 µg/mL and 9.84 µM | 4.57 µg/mL and 20.7 µM | – | – | AChE Effect IC50 ± SD (AChE of S. zeamais): 0.0096 ± 0.00208 µg/mL; Fumigant Toxicity LC50i (LC-95%) (Sitophilus zeamais [2]; mixtures and their components (Table 3)): 2.17 (1.53–3.81) mg/L
CC1=CCC(=C(C)C)CC1 [Compound C24, Terpinolene] | – | 52.1 µg/mL and 338 µM | 88.8 µg/mL and 576 µM | – | – | –
CC1C(=O)CC2(C(C)C)CC12 (stereo not drawn) [Compound C6, α, β-Thujone (70:10)] | – | 4.34 µg/mL and 28.5 µM | 6.81 µg/mL and 44.7 µM | 32.04 (29.44–34.42) µg/Adult | 44.67 (41.56–49.34) µg/Adult | –
CCCCCCCCC(C)=O [Compound C35, 2-Decanone] | – | – | – | 38.04 (35.29–40.84) µg/Adult | 57.17 (52.97–63.12) µg/Adult | LC50 (Sitophilus zeamais [2]; [6]): > 150 µg/mL
C=C1CCC2CC1C2(C)C (stereo not drawn) [Compound C17, β-Pinene] | – | – | 151 µg/mL | – | – | –
C=CC(C)(O)CCC=C(C)C (stereo not shown) [Compound C28, Linalool] | – | – | – | 21.87 (19.09–24.23) µg/Adult | 36.23 (33.20–40.64) µg/Adult | –
C=CCc1ccc2c(c1)OCO2 [Compound C32, Safrole] | – | – | – | 36.31 (30.15–42.37) µg/Adult | 83.04 (73.50–96.63) µg/Adult | Contact toxicity, times less active than biosynthetic precursors C26 and C31 (Sitophilus zeamais [3]; in vivo): 1.5 times
CC1=CCC(C(C)C)=CC1 [Compound C21, γ-Terpinene] | 108 | 108 µg/mL and 792 µM | 188 µg/mL and 1.38 mM | – | – | GST Inhibition λ340 (%) [1]: 25.9%
CC(C)=CCC/C(C)=C/C=O [Compound C27, Citral] | – | – | – | – | 32.68 (29.77–36.82) µg/Adult | –
CC1=CC(=O)C(C(C)C)CC1 (stereo not shown) [Compound C22, Piperitone] | – | 4.38 µg/mL and 28.8 µM | 6.19 µg/mL and 40.7 µM | – | 14.70 (13.25–16.96) µg/Adult | –
C=C1CCC2(C(C)C)CC12 (stereo not shown) [Compound C18, Sabinene] | 68.7 | 68.7 µg/mL and 504 µM | 102 µg/mL and 750 µM | – | – | GST Inhibition λ340 (%) [1]: 25.9%; LC50 (Sitophilus zeamais [2]; [6]): 68.6 µg/mL
CC(C)=CCC/C(C)=C/CO [Compound C30, Geraniol] | – | – | – | 28.13 (25.70–30.49) µg/Adult | 41.06 (37.98–45.41) µg/Adult | –
CCCCCCCC(=O)CCC [Compound C34, 4-Undecanone] | – | – | – | 37.05 (34.09–40.01) µg/Adult | 53.95 (49.63–60.68) µg/Adult | –
CC1(C)C(=O)[C@]2(C)CC[C@H]1C2 [Compound C8, 1R-(−)-Fenchone] | – | 10.6 µg/mL and 69.6 µM | 17.1 µg/mL and 112 µM | 34.65 (32.19–37.08) µg/Adult | 48.33 (45.12–52.78) µg/Adult | –
CCCCCCCC(C)=O [Compound C9, 2-Nonanone] | – | 9.09 µg/mL and 63.9 µM | 13.7 µg/mL and 96.5 µM | 31.86 (30.27–33.17) µg/Adult | 39.69 (38.01–42.15) µg/Adult | –

Source: PMC12194779, “Synergistic Insecticidal Activity of Plant Volatile Compounds: Impact on Neurotransmission and Detoxification Enzymes in Sitophilus zeamais” (Insects, 2025)
